Experimental data as given in patent US9394297B2, “Amides as pim inhibitors” (AMGEN INC., priority 2012, dated 2016).
Where two headings read alike, the source gives them in different places.

What was measured:
Pim-1 = Pim-1 (Homo sapiens (Human), UniProt P11309); assay: Pim-Mn enzyme assay (HTRF, 384-well), Pim-1; type: biochemical; details: read-out: Pim-1-Mn IC50 IP
KMS-12-BM cell lines = assay: KMS12 #2 flow cytometry assay (phospho-BAD Ser112); type: cell-based; details: Homo sapiens, 110 min; KMS-12-BM cells, pBAD Ser112 by flow cytometry, 110 min with compound; read-out: KMS-12-Flow IC50 IP
Pim-2 = Pim-2 (Homo sapiens (Human), UniProt Q9P1W9); assay: Pim-Mn enzyme assay (HTRF, 384-well), Pim-2; type: biochemical; details: read-out: Pim-2-Mn IC50 IP
Pim-2, sequence (Q9P1W9 whole entry): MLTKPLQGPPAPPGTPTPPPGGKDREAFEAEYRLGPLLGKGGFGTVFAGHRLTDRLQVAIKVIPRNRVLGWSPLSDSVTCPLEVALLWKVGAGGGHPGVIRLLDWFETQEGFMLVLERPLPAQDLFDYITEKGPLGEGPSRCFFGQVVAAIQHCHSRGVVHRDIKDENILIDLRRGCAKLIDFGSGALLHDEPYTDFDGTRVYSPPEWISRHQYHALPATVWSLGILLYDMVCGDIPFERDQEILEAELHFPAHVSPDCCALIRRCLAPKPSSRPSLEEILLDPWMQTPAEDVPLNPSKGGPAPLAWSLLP

[1] = Pim-1 enzyme 5 pM, ATP 1.5 μM, BAD (S112) 0.5 μM, HTRF, 22-point curve
[2] = Pim-2 enzyme 0.5 pM, ATP 1.5 μM, BAD (S112) 0.5 μM, HTRF, 22-point curve

Pim-1, sequence (P11309 whole entry): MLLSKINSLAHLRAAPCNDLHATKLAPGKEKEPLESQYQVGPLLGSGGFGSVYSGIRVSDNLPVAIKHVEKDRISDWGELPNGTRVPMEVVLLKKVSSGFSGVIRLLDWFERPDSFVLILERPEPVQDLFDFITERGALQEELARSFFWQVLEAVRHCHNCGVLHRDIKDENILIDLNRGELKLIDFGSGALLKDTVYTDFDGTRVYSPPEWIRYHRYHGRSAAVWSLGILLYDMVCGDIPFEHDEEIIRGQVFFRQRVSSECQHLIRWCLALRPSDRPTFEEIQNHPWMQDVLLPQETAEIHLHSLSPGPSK

IC50 (Pim-1; [1]) [µM]	IC50 (KMS-12-BM cell lines) [µM]	IC50 (Pim-2; [2]) [µM]	SMILES	IC50 (Pim-2) [µM]	IC50 (Pim-1) [µM]
0.00254	0.769	0.00362	CC(C)(C)Nc1ncc2cccc(-c3cc4c([nH]3)CCNC4=O)c2n1 [Example 374, 2-(2-(tert-butylamino)quinazolin-8-yl)-6,7-dihydro-1H-pyrrolo[3,2-c]pyridin-4(5H)-one]	–	–
0.00243	1.63	0.00332	CN(c1ncc2cccc(-c3cc4c([nH]3)CCNC4=O)c2n1)C(C)(C)C [Example 377, 2-(2-(tert-butyl(methyl)amino)quinazolin-8-yl)-6,7-dihydro-1H-pyrrolo[3,2-c]pyridin-4(5H)-one]	–	–
0.176	> 40	0.272	Cc1nccn1-c1cnc2cccc(-c3cc4c([nH]3)CCNC4=O)c2n1 [Example 320]	–	–
0.145	> 40	0.131	Cc1nc2cccc(-c3cc4c([nH]3)CCNC4=O)c2nc1NC(=O)C1CC1 [Example 446, N-(3-methyl-8-(4-oxo-4,5,6,7-tetrahydro-1H-pyrrolo[3,2-c]pyridin-2-yl)quinoxalin-2-yl)cyclopropanecarboxamide]	–	–
0.000414	0.0671	0.00053	Cc1nc2cccc(-c3cc4c([nH]3)[C@@H](CO)NC4=O)c2nc1NC1(C)CC1 [Example 361, (S)-6-(hydroxymethyl)-2-(2-methyl-3-((1-methylcyclopropyl)amino)quinoxalin-5-yl)-5,6-dihydropyrrolo[3,4-b]pyrrol-4 (1H)-one]	–	–
0.0523	> 40	0.127	Cc1ccccc1-c1nc2c(-c3cc4c([nH]3)CCNC4=O)cccc2nc1C [Example 426, 2-(2-Methyl-3-(o-tolyl)quinoxalin-5-yl)-6,7-dihydro-1H-pyrrolo[3,2-c]pyridin-4(5H)-one]	–	–
0.000345	0.142	0.000297	Cc1nc2cccc(-c3cc4c([nH]3)CNC4=O)c2nc1NC1CC1 [Example 363, 2-(3-(cyclopropylamino)-2-methylquinoxalin-5-yl)-5,6-dihydropyrrolo[3,4-b]pyrrol-4(1H)-one]	–	–
0.00178	0.0758	0.00164	Cc1nc2cccc(-c3cc4c([nH]3)[C@@H](C)NC4=O)c2nc1NC(C)C [Example 287, (6R)-6-methyl-2-(2-methyl-3-((1-methylethyl)amino)-5-quinoxalinyl)-5,6-dihydropyrrolo[3,4-b]pyrrol-4(1H)-one]	–	–
0.00123	0.165	0.00223	Cc1nc2cccc(-c3cc4c([nH]3)[C@@H](C)NC4=O)c2nc1NCC(F)(F)F [Example 294, (6R)-6-methyl-2-(2-methyl-3-((2,2,2-trifluoroethyl)amino)-5-quinoxalinyl)-5,6-dihydropyrrolo[3,4-b]pyrrol-4(1H)-one]	–	–
0.000839	0.572	0.00147	Cc1nc2cccc(-c3cc4c([nH]3)CCCC4=O)c2nc1NC(C)(C)C [Example 303, 2-(3-(tert-butylamino)-2-methylquinoxalin-5-yl)-6,7-dihydro-1H-indol-4(5H)-one]	–	–
0.00352	3.15	0.00779	Cc1nc2cccc(-c3cc(C(N)=O)c(C4CC4)[nH]3)c2nc1NC(C)(C)C [Example 418, 5-(3-(tert-butylamino)-2-methylquinoxalin-5-yl)-2-cyclopropyl-1H-pyrrole-3-carboxamide]	–	–
0.0216	3.19	0.0325	Cc1nc2cccc(-c3cc4c([nH]3)[C@@H](C)NC4=O)c2nc1O[C@@H](C)C(F)(F)F [Example 452, (6R)-6-methyl-2-(2-methyl-3-((1S)-2,2,2-trifluoro-1-methylethoxy)-5-quinoxalinyl)-5,6-dihydropyrrolo[3,4-b]pyrrol-4(1H)-one]	–	–
0.000191	0.0376	0.000136	Cc1nc2ccc(F)c(-c3cc4c([nH]3)CCNC4=O)c2nc1NC1(C)CCC1 [Example 376, 2-(6-fluoro-2-methyl-3-((1-methylcyclobutyl)amino)quinoxalin-5-yl)-6,7-dihydro-1H-pyrrolo[3,2-c]pyridin-4(5H)-one]	–	–
0.0397	4.19	0.0358	Cc1nc2cccc(-c3cc4c(n3C(=O)OC(C)(C)C)CCNC4=O)c2nc1NC(C)(C)C [Example 290, tert-butyl 2-(3-(tert-butylamino)-2-methylquinoxalin-5-yl)-4-oxo-4,5,6,7-tetrahydro-1H-pyrrolo[3,2-c]pyridine-1-carboxylate]	–	–
0.00407	1.12	0.0108	CC(C)(C)Nc1nc2c(-c3cc4c([nH]3)CCNC4=O)cccc2nc1N1CC(O)C1 [Example 346, 2-(3-(tert-butylamino)-2-(3-hydroxy-1-azetidinyl)-5-quinoxalinyl)-1,5,6,7-tetrahydro-4H-pyrrolo[3,2-c]pyridin-4-one]	–	–
0.00125	0.341	0.00191	Cc1nc2cccc(-c3cc4c([nH]3)CNC4=O)c2nc1NCC(F)(F)F [Example 301, 2-(2-methyl-3-((2,2,2-trifluoroethyl)amino)-5-quinoxalinyl)-5,6-dihydropyrrolo[3,4-b]pyrrol-4(1H)-one]	–	–
0.0824	> 40	0.0821	Cc1nc2cccc(-c3cc4c([nH]3)CCNC4=O)c2nc1-c1ccccc1 [Example 424, 2-(2-Methyl-3-phenylquinoxalin-5-yl)-6,7-dihydro-1H-pyrrolo[3,2-c]pyridin-4(5H)-one]	–	–
0.00212	0.558	0.00226	CC(C)(C)Nc1nc2c(-c3cc4c([nH]3)CCNC4=O)cccc2nc1CO [Example 306, 2-(3-(tert-butylamino)-2-(hydroxymethyl)quinoxalin-5-yl)-6,7-dihydro-1H-pyrrolo[3,2-c]pyridin-4(5H)-one]	–	–
0.00637	0.41	0.00602	Cc1nc2cccc(-c3cc4c([nH]3)[C@H](C)NC4=O)c2nc1NCC(F)(F)F [Example 293, (6S)-6-methyl-2-(2-methyl-3-((2,2,2-trifluoroethyl)amino)-5-quinoxalinyl)-5,6-dihydropyrrolo[3,4-b]pyrrol-4(1H)-one]	–	–
0.00291	0.279	0.00356	Cc1nc2ccc(F)c(-c3cc(C(N)=O)c(C)[nH]3)c2nc1NC1(C)CC1 [Example 417, 5-(6-fluoro-2-methyl-3-((1-methylcyclopropyl)amino)quinoxalin-5-yl)-2-methyl-1H-pyrrole-3-carboxamide]	–	–

SMILES	IC50 (Pim-1; [1]) [µM]	IC50 (KMS-12-BM cell lines) [µM]	IC50 (Pim-2; [2]) [µM]	IC50 (Pim-2) [µM]	IC50 (Pim-1) [µM]
Cc1nc2cccc(-c3cc4c([nH]3)CCNC4=O)c2nc1NC(C)(C)CN [Example 341, 2-(3-((2-amino-1,1-dimethylethyl)amino)-2-methyl-5-quinoxalinyl)-1,5,6,7-tetrahydro-4H-pyrrolo[3,2-c]pyridin-4-one]	0.00685	7.83	–	0.0107	–
Cc1nc2cccc(-c3cc4c([nH]3)CNC4=O)c2nc1NC(C)(C)C [Example 334, 2-(3-(tert-Butylamino)-2-methyl-5-quinoxalinyl)-5,6-dihydropyrrolo[3,4-b]pyrrol-4(1H)-one]	0.00118	0.0438	0.000882	–	–
CC(C)(C)Nc1nc2c(-c3cc4c([nH]3)CCNC4=O)cccc2nc1N1CCC1 [Example 347, 2-(2-(1-azetidinyl)-3-(tert-butylamino)-5-quinoxalinyl)-1,5,6,7-tetrahydro-4H-pyrrolo[3,2-c]pyridin-4-one]	–	3.66	–	0.0105	0.00455
